This note sets out measurements from ChEMBL document CHEMBL1201862, “PubChem BioAssay data set” (2004).

Experiment in all cases: NCI anticancer screen, dose series, 48 h
The test system of experiment [1] is OVCAR-3.
Experiment [2] deals with HOP-92.
The subject of experiment [3] is CCRF-CEM.
Experiment [4] has as its system SF-539.
In experiment [5] the test system is CAKI-1.
Experiment [6] concerns HCT-15.
Experiment [7] deals with SNB-19.
Experiment [8] concerns UACC-62.
The subject of experiment [9] is OVCAR-4.
In experiment [10] the test system is OVCAR-8.
Experiment [11] has as its system RPMI-8226.
The subject of experiment [12] is NCI-H522.
The subject of experiment [13] is A549.
Experiment [14] deals with K562.
Experiment [15] relates to EKVX.
Experiment [16] relates to A498.
The test system of experiment [17] is M19-MEL.

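Test compounds were applied to cells in 96-well plates for 48 hours at 5 doses. GI50 marks 50% less growth.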 The source made the active and inactive calls. Rule as the data show it: active = GI50 up to about 1.1 µM and inactive = higher.

Turning to `O=C1CCC(c2ccccc2)C(O)(C(=O)O)C1` (centres undefined), the GI50 in [1] was > 100 µM (inactive); in experiment [2] it was > 100 µM (inactive); in experiment [3], > 100 µM (inactive); in [4], > 100 µM (inactive); in experiment [5], > 100 µM (inactive); in experiment [6], more than 100 µM. For the same molecule, the GI50 in experiment [7], in [8], in [9], in experiment [10], in experiment [11] and in experiment [12] was > 100 µM (inactive) in each case. The GI50 in experiment [13], in experiment [14], in experiment [15], in [16] and in [17] was > 100 µM (inactive) each time.

In the case of `CC1(Br)C(=O)NC(=O)N(C2CC(N=[N+]=[N-])C(CO)O2)C1N=[N+]=[N-]` (centres undefined), the GI50 in [1] is > 100 µM (inactive); in [2] it was > 100 µM (inactive); in experiment [3], 53.1 µM (inactive); in [4], > 100 µM (inactive); in experiment [5], 70.8 µM (inactive); in experiment [6] it was more than 100 µM. The GI50 in [7] is > 100 µM (inactive); in experiment [8], > 100 µM (inactive); in experiment [9], > 100 µM (inactive); in experiment [10], > 100 µM (inactive); in experiment [11] it was 92.5 µM (inactive); in [12], 23.1 µM (inactive). Besides, the GI50 in experiment [13], in experiment [14], in experiment [15], in [16] and in experiment [17] was > 100 µM (inactive) in each case.

For `O=C(Nc1cccc(Cc2cccc(NC(=O)c3ccccc3)c2)c1)c1ccccc1`, the GI50 was 26.9 µM (inactive) in experiment [1]; 9.77 µM (inactive) in experiment [2]; > 100 µM (inactive) in [3]; 12.6 µM (inactive) in experiment [4]; 16.9 µM (inactive) in experiment [5]; 89.3 µM in experiment [6]. Further, the GI50 in experiment [7] is 25.4 µM (inactive); in experiment [8] it was 23.8 µM (inactive); in experiment [9] it was 6.79 µM (inactive); in [10], 19.5 µM (inactive); in experiment [12] it was 25.2 µM (inactive); in experiment [13], 24.8 µM (inactive). Besides, the GI50 in [14] is > 100 µM (inactive); in experiment [15], 23.3 µM (inactive); in [16], 17.8 µM (inactive); in experiment [17] it was 63 µM (inactive).

Turning to `CSc1snc2sc3c(Cl)nnnc3c12`, the GI50 was 2.43 µM (inactive) in [1]; 2.12 µM (inactive) in [3]; 17.8 µM (inactive) in experiment [4]; 4.42 µM (inactive) in [5]; 8.15 µM in experiment [6]; 15.8 µM (inactive) in experiment [7]. For the same molecule, the GI50 is 14.2 µM (inactive) in experiment [8]; 14.8 µM (inactive) in experiment [9]; 7.46 µM (inactive) in [10]; 15.6 µM (inactive) in experiment [11]; 17.9 µM (inactive) in [13]; 2.36 µM (inactive) in experiment [14]. Moreover, the GI50 in experiment [15] was 19.6 µM (inactive); in experiment [16], 15 µM (inactive); in [17], 9.35 µM (inactive).

On to `CC1(C)C=N[N+]2(C)C3C=CC(CC3)C12` (centres undefined), for which the GI50 is > 100 µM (inactive) in experiment [1]; > 100 µM (inactive) in [2]; > 100 µM (inactive) in experiment [3]; > 100 µM (inactive) in [4]; > 100 µM (inactive) in experiment [5]; more than 100 µM in experiment [6]. The GI50 in experiment [7], in experiment [8], in [10], in experiment [11], in experiment [12] and in experiment [13] was > 100 µM (inactive) throughout. Further, the GI50 in [14], in experiment [15], in [16] and in [17] was > 100 µM (inactive) in each case.

As to `COc1ccc([Se]c2ccc(OC)cc2OC)c(OC)c1`, the GI50 in experiment [1] is 32 µM (inactive); in experiment [2] it was 2.2 µM (inactive); in experiment [3], 20.2 µM (inactive); in [4], 22.6 µM (inactive); in experiment [5], 19.5 µM (inactive); in experiment [7] it was 86.7 µM (inactive). Further, the GI50 in [8] is 11.1 µM (inactive); in experiment [9], 21.9 µM (inactive); in experiment [10] it was 33.6 µM (inactive); in experiment [11], 20.7 µM (inactive); in experiment [12], 13 µM (inactive); in experiment [13], 10.8 µM (inactive). The GI50 was 10.5 µM (inactive) in [14], 18.7 µM (inactive) in experiment [16] and 9.46 µM (inactive) in experiment [17].

For the molecule `COC(=O)C1C2CC3C(OC(=O)C31)C2I` (centres undefined), the GI50 is > 100 µM (inactive) in experiment [1]; > 100 µM (inactive) in experiment [2]; > 100 µM (inactive) in experiment [4]; > 100 µM (inactive) in [5]; more than 100 µM in experiment [6]; > 100 µM (inactive) in [7]. For the same molecule, the GI50 in experiment [8], in experiment [9], in [10], in experiment [11], in [12] and in [13] was > 100 µM (inactive) throughout. The GI50 in experiment [14], in experiment [15], in [16] and in [17] was > 100 µM (inactive) throughout.

Take `Cc1ccc(-c2cc(-c3ccco3)c(C#N)c(=O)n2C2OC(OC(=O)c3ccccc3)C(OC(=O)c3ccccc3)C2OC(=O)c2ccccc2)cc1` (centres undefined): the GI50 in experiment [1] was 39.2 µM (inactive); in [2], 24.7 µM (inactive); in experiment [3] it was > 100 µM (inactive); in experiment [4], > 100 µM (inactive); in experiment [5] it was > 100 µM (inactive); in experiment [6], more than 100 µM. Further, the GI50 in experiment [8] is > 100 µM (inactive); in experiment [10], > 100 µM (inactive); in [11] it was > 100 µM (inactive); in experiment [12], 62.8 µM (inactive); in experiment [13] it was > 100 µM (inactive); in experiment [14] it was > 100 µM (inactive). Besides, the GI50 in [15], in experiment [16] and in [17] was > 100 µM (inactive) each time.

In the case of `O=C1OCC(C(=O)c2cccc(O)c2)C1=O` (centres undefined), the GI50 in experiment [1] is > 100 µM (inactive); in [2] it was > 100 µM (inactive); in experiment [4], > 100 µM (inactive); in experiment [5], > 100 µM (inactive); in experiment [6] it was more than 100 µM; in experiment [7], > 100 µM (inactive). In addition, the GI50 in experiment [8], in experiment [9], in experiment [10], in experiment [11], in experiment [12] and in [13] was > 100 µM (inactive) in each case. The GI50 in experiment [15], in experiment [16] and in [17] was > 100 µM (inactive) throughout.

`CCC1(N=[N+]=[N-])C(=O)c2ccccc2N(C)C1=O` (centres undefined): the GI50 is > 100 µM (inactive) in experiment [1]; > 100 µM (inactive) in [2]; > 100 µM (inactive) in experiment [3]; > 100 µM (inactive) in [4]; > 100 µM (inactive) in experiment [5]; more than 100 µM in [6]. Moreover, the GI50 in [7], in experiment [8], in experiment [9], in experiment [10], in [12] and in experiment [13] was > 100 µM (inactive) in each case. Further, the GI50 in experiment [14], in experiment [15], in experiment [16] and in experiment [17] was > 100 µM (inactive) throughout.

For `O=C1NC(=O)C(C(=O)C(=O)Nc2ccc(Cl)cc2Cl)C(=O)N1`, the GI50 in experiment [1] was > 100 µM (inactive); in [2], 36.8 µM (inactive); in [3], > 100 µM (inactive); in [4] it was > 10 µM (inactive); in [5], > 100 µM (inactive); in experiment [6] it was more than 100 µM. In addition, the GI50 in experiment [7], in experiment [8], in [9], in [10], in experiment [11] and in experiment [13] was > 100 µM (inactive) throughout. Moreover, the GI50 in experiment [14], in [15], in experiment [16] and in [17] was > 100 µM (inactive) each time.

As for `O=C(O)CNc1cc(-c2ccccc2)nc(NCC(=O)O)n1`, the GI50 in [1] was > 100 µM (inactive); in experiment [2] it was > 100 µM (inactive); in experiment [3], > 100 µM (inactive); in [4] it was > 100 µM (inactive); in [5] it was > 100 µM (inactive); in experiment [6] it was more than 100 µM. Also, the GI50 in experiment [7], in [8], in experiment [9], in [10], in experiment [11] and in [12] was > 100 µM (inactive) each time. Also, the GI50 in experiment [13], in [14], in experiment [15] and in experiment [17] was > 100 µM (inactive) throughout.

For the molecule `O=S(=O)(O)C(O)/C=C/c1ccccc1` (centres undefined), the GI50 was > 100 µM (inactive) in experiment [1]; 52.5 µM (inactive) in experiment [3]; > 100 µM (inactive) in [5]; more than 100 µM in [6]; > 100 µM (inactive) in experiment [7]; > 100 µM (inactive) in [8]. The GI50 in experiment [9], in experiment [10], in experiment [12], in [13], in experiment [14] and in experiment [15] was > 100 µM (inactive) in each case. Besides, the GI50 in experiment [16] and in experiment [17] was > 100 µM (inactive) each time.
